Reference: patent US12371426B2, “Pyridazine derivatives as SMARCA2/4 degraders” (Aurigene Discovery Technologies Limited, priority 2018, dated 2025)

Experiments:
Format in all cases: cell-based
[1] = test system: NCI-H929 cells; experiment: Anti proliferative activity in NCI-H929 cell line by Cell Titer Glo assay; conditions: Homo sapiens, 72 h, 3 days compound incubation, CellTiter Glo, read-out: Anti-proliferative activity IC50 group (NCI-H929 cells)
Protocol: Determination of Anti Proliferative Activity of Compounds in NCI-H929 and NCI-H838 Cell Lines by Cell Titer Glo® (promega) assay:
NCI-H929 (ATCC CRL-9068) or NCI-H838 (ATCC CRL-5844) cells were seeded in 96 well plate flat black clear bottom plates (Corning, Cat. No 3904) using complete RPMI-1640 media. Next day, compounds listed in the present invention were added to cells from 10 mM stocks made in DMSO (Sigma Cat no. D2650). Each concentration of compound was tested in triplicate with DMSO concentration at a final percentage not exceeding 0.3 in the cells. After the compound incubation (3 days for H929 and 8 days for H838) assay was terminated using 50 μl of CellTiter Glo® reagent (Promega, Cat. no G7572). CellTiter Glo® Luminescent reagent determines the number of viable cells based on quantitation of ATP present which is an indicator of cell number and metabolic activity. Luminescence readings were taken in Victor-3 instrument. Percent inhibition of proliferation was calculated using formula, % inhibition=100−(luminescence value of test/luminescence value of DMSO control)*100. DMSO control (0%)=Cells in complete media with DMSO; blank=Media alone containing DMSO. IC50 was calculated using graph pad prism software.
Herein group “A” refers to IC50 value lower than 1 μM, “B” refers to IC50 value between 1-10 μM (both inclusive) and “C” refers to IC50 value higher than 10 μM or less than 50% activity at 10 μM.

[2] = molecular target: T1, SMARCA2 (Homo sapiens, UniProt P51531); experiment: SMARCA2 degradation in H929 cells by Western blot; set-up: endogenous in cells; conditions: 16 hours
Protocol: (§1) Determination of SMARCA2 and SMARCA4 Degradation in H929 Cells by Western Blot:
(§2) NCI-H929 (ATCC CRL-9068) was plated in 6 well plates using complete RPMI-1640 media. Next day, compounds of present invention were added to cells from 10 mM stocks made in DMSO (Sigma Cat no. D2650). Each concentration of compound was tested with DMSO not exceeding final percentage of 0.3 in the cells. Cells were incubated with the compound for 16 hours followed by harvesting with 1× RIPA lysis buffer (Thermo Fischer, catalogue number #89900) containing protease inhibitor cocktail (Sigma catalogue number #P-8340). Equal amount of protein was loaded on SDS PAGE gel for electrophoresis. Western blot was carried out for detection of either SMARCA2 (Cell signaling technologies, catalogue number #11966) or SMARCA4 antibody (Cell signaling technologies, catalogue number #49360). Beta Actin (Santa Cruz, catalogue number #69879) was used as loading control. Percentage of SMARCA2 or SMARCA4 degradation was calculated using formula % Degradation=100−(normalized band intensity in treated sample/normalized band intensity in DMSO sample)*100.
(§3) Selected compounds of the present invention were screened in the above mentioned assay procedures for determination of % SMARCA2 and SMARCA4 degradation 100 nM and the results are summarized in below table 30.

[3] = molecular target: T2, SMARCA4 (Homo sapiens, UniProt P51532); experiment: SMARCA4 degradation in H929 cells by Western blot; conditions: 16 hours; for SMARCA4 percent degradation at 0.1 µM: NCI-H929, 100 nM
T2 construct: endogenous in cells; host or cells: NCI-H929 (ATCC CRL-9068)
Protocol: as §1, §2, §3

[4] = molecular target: T1, SMARCA2; experiment: SMARCA2 degradation in NCI-H838 cells by Western blot; set-up: endogenous in cells; host or cells: NCI-H838 (ATCC CRL-5844); conditions: 16 hours
Protocol: Determination of SMARCA2 Degradation in NCI-1H838 Cells by Western Blot:
NCI-1H838 (ATCC CRL-5844) was plated in 6 well plates using complete RPMI-1640 media. Next day, compounds of present invention were added to cells from 10 mM stocks made in DMSO (Sigma Cat no. D2650). Each concentration of compound was tested with DMSO concentration not exceeding a final percentage of 0.3 in the cells. Cells were incubated with the compound for 16 hours followed by harvesting with 1× RIPA lysis buffer (Thermo Fischer, catalogue number #89900) containing protease inhibitor cocktail (Sigma catalogue number #P-8340). Equal amount of protein was loaded on SIDS PAGE gel for electrophoresis. Western blot was carried out for detection of SMARCA2 with antibody (Cell signaling technologies, catalogue number #11966). Beta Actin (Santa Cruz, catalogue number #69879) was used as loading control. Percentage of SMARCA2 degradation was calculated using formula % degradation=100−(normalized band intensity in treated sample/normalized band intensity in DMSO sample)*100”.
Selected compounds of the present invention were screened in the above mentioned assay procedures for determination of % SMARCA2 degradation at 100 nM and the results are summarized in below table 31.

T1 sequence (P51531 whole entry): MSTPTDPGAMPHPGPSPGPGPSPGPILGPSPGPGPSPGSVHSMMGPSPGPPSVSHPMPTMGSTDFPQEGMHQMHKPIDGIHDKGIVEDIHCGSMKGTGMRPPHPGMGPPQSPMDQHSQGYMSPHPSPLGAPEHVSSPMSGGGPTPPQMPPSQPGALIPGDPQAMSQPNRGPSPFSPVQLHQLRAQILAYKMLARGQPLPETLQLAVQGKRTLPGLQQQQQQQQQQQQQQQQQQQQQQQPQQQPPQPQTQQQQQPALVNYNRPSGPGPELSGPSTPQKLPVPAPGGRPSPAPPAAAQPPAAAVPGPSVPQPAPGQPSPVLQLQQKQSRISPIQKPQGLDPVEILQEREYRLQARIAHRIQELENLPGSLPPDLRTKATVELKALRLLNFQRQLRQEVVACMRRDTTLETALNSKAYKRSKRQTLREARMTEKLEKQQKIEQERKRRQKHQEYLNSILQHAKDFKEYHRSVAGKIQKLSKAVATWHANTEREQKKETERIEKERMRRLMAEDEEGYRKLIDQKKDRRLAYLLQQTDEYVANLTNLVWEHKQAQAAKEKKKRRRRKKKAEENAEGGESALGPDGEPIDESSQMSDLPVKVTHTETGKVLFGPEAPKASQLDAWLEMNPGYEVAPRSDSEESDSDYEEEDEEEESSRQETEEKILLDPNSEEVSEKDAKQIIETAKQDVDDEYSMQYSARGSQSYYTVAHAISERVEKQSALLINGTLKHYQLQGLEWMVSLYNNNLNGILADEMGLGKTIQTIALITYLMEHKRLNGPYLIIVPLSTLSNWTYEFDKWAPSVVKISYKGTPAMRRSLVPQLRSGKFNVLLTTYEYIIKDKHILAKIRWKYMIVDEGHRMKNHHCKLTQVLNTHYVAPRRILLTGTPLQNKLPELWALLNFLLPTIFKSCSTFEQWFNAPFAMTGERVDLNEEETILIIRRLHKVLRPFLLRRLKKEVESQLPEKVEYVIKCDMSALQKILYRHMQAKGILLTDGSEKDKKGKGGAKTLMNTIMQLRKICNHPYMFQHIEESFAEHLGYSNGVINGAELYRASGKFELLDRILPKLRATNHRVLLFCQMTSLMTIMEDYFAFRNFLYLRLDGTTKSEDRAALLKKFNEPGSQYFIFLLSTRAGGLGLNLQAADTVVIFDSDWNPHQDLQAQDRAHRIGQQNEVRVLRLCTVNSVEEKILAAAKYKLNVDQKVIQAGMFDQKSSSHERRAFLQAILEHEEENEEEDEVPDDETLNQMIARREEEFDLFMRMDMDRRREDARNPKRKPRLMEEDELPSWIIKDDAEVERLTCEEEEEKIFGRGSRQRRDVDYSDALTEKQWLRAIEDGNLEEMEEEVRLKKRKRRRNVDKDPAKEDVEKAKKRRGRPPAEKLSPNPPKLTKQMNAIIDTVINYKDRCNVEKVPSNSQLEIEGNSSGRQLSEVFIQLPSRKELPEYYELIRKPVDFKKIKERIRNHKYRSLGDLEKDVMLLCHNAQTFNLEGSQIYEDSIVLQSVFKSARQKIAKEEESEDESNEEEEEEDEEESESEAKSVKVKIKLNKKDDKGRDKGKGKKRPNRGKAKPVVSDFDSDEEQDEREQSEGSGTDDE
T2 sequence (P51532 whole entry): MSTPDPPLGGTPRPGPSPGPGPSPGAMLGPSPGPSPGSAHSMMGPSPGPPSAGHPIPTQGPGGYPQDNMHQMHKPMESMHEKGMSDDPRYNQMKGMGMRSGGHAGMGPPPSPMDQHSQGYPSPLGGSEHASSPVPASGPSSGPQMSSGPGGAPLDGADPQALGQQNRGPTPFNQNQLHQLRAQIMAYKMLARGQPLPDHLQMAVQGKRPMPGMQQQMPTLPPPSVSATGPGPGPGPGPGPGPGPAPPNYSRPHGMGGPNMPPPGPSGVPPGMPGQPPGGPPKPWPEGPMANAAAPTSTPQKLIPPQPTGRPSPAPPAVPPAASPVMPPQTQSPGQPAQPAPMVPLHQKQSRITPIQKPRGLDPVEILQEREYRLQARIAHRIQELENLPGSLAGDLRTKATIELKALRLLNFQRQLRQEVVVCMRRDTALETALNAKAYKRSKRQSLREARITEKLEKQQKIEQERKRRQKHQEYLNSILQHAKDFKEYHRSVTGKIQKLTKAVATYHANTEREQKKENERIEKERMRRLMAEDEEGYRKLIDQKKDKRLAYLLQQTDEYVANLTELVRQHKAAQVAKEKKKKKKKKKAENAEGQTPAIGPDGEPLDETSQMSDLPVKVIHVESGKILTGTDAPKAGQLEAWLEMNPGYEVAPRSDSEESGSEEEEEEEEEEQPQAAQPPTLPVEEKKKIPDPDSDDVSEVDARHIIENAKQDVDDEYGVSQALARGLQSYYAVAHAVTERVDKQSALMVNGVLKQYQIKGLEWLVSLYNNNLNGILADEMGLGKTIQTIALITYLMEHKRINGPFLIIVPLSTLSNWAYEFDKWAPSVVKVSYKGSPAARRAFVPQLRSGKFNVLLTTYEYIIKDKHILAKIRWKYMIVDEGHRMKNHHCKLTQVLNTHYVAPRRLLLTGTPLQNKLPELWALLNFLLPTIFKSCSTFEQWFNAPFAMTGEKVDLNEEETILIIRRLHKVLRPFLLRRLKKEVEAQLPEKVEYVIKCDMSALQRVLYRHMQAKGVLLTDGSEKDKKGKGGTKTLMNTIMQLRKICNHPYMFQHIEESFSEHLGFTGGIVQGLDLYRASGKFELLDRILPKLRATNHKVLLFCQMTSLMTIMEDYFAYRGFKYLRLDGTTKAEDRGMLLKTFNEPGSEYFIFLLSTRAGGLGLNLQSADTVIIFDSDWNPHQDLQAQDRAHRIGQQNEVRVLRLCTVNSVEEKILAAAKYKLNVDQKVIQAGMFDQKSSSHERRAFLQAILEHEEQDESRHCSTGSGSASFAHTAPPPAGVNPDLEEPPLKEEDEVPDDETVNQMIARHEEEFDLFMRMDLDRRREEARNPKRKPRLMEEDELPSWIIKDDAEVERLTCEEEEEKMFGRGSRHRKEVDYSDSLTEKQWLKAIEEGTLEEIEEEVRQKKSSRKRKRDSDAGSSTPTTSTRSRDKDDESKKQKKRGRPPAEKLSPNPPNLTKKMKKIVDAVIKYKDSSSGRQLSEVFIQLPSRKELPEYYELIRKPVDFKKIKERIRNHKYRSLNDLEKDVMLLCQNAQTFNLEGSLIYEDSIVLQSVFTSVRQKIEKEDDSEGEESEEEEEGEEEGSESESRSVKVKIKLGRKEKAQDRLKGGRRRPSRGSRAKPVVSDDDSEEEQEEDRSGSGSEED

Cc1ncsc1-c1ccc([C@H](C)NC(=O)[C@@H]2C[C@@H](O)CN2C(=O)[C@@H](NC(=O)CCCCCCC(=O)N2CCN(c3cc(-c4ccccc4O)nnc3N)CC2)C(C)(C)C)cc1 [Compound 37]
IC50 [1]: < 1000 nM
SMARCA2 Percent degradation @ 100 nM [2]: 96%

Cc1ncsc1-c1ccc([C@H](C)NC(=O)[C@@H]2C[C@@H](O)CN2C(=O)[C@@H](NC(=O)C(C)(C)N2CCN(c3cc(-c4ccccc4O)nnc3N)CC2)C(C)(C)C)cc1 [Compound 87]
IC50 [1]: < 1000 nM
SMARCA4 percent degradation at 0.1 µM [3]: 93%
SMARCA2 Percent degradation @ 100 nM [2]: 83%

Cc1ncsc1-c1ccc([C@H](C)NC(=O)[C@@H]2C[C@@H](O)CN2C(=O)[C@@H](NC(=O)CN2CCN(c3cc(-c4ccccc4O)nnc3N)CC2)C(C)C)cc1 [Compound 79, (2S,4R)-1-((2-(4-(3-amino-6-(2-hydroxyphenyl)pyridazin-4-yl)piperazin-1-yl)acetyl)-L-valyl)-4-hydroxy-N—((S)-1-(4-(4-methylthiazol-5-yl)phenyl)ethyl)pyrrolidine-2-carboxamide]
IC50 [1]: < 1000 nM
SMARCA4 percent degradation at 0.1 µM [3]: 99%
SMARCA2 Percent degradation @ 100 nM [2]: 99%

Cc1ncsc1-c1ccc([C@H](C)NC(=O)[C@@H]2C[C@@H](O)CN2C(=O)[C@@H](NC(=O)CCCCCCCCCC(=O)N2CCN(c3cc(-c4ccccc4O)nnc3N)CC2)C(C)(C)C)cc1 [Compound 38]
IC50 [1]: 1000 to 10000 nM
SMARCA4 percent degradation at 0.1 µM [3]: 17%
SMARCA2 Percent degradation @ 100 nM [2]: 99%

Cc1ncsc1-c1ccc([C@H](C)NC(=O)[C@@H]2C[C@@H](O)CN2C(=O)[C@@H](NC(=O)CCCCCCCCC(=O)N2CCN(c3cc(-c4ccccc4O)nnc3N)CC2)C(C)(C)C)cc1 [Compound 109]
IC50 [1]: < 1000 nM
SMARCA4 percent degradation at 0.1 µM [3]: 38%
SMARCA2 Percent degradation @ 100 nM [2]: 100%

CO[C@@H]1C[C@@H](C(=O)N[C@@H](C)c2ccc(-c3scnc3C)cc2)N(C(=O)[C@@H](NC(=O)CN2CCN(c3cc(-c4ccccc4O)nnc3N)CC2)C(C)(C)C)C1 [Compound 117]
IC50 [1]: 1000 to 10000 nM
SMARCA4 percent degradation at 0.1 µM [3]: 47%
SMARCA2 Percent degradation @ 100 nM [2]: 45.4%

Cc1ncsc1-c1ccc([C@H](C)NC(=O)[C@@H]2C[C@@H](O)CN2C(=O)[C@@H](NC(=O)C(C)C2CCN(c3cc(-c4cccc(F)c4O)nnc3N)CC2)C(C)(C)C)cc1 (single isomer, unassigned) [Compound 84]
SMARCA2 Percent degradation @ 100 nM [2]: 58%

Cc1ncsc1-c1ccc(C(NC(=O)[C@@H]2C[C@@H](O)CN2C(=O)[C@@H](NC(=O)CC2CCN(c3cc(-c4cccc(F)c4O)nnc3N)CC2)C(C)(C)C)C(F)(F)F)cc1 (stereo partly drawn) [Compound 76, (2S,4R)-1-((S)-2-(2-(1-(3-amino-6-(3-fluoro-2-hydroxyphenyl)pyridazin-4-yl)piperidin-4-yl)acetamido)-3,3-dimethylbutanoyl)-4-hydroxy-N-(2,2,2-trifluoro-1-(4-(4-methylthiazol-5-yl)phenyl)ethyl)pyrrolidine-2-carboxamide]
SMARCA4 percent degradation at 0.1 µM [3]: 12%
SMARCA2 Percent degradation @ 100 nM [2]: 90%

Cc1ncsc1-c1ccc([C@H](C)NC(=O)[C@@H]2C[C@@H](O)CN2C(=O)[C@H](C)NC(=O)CN2CCN(c3cc(-c4ccccc4O)nnc3N)CC2)cc1 [Compound 118]
IC50 [1]: > 10000 nM
SMARCA2 Percent degradation @ 100 nM [2]: 20.2%

Nc1nnc(-c2ccccc2O)cc1N1CCN(CC(=O)Nc2cccc3c2C(=O)N(C2CCC(=O)NC2=O)C3=O)CC1 (stereo not drawn) [Compound 41]
SMARCA4 percent degradation at 0.1 µM [3]: 60%
SMARCA2 Percent degradation @ 100 nM [2]: 64%

CNC(=O)c1cc(N2CCN(CC(=O)N[C@H](C(=O)N3C[C@H](O)C[C@H]3C(=O)N[C@@H](C)c3ccc(-c4scnc4C)cc3)C(C)(C)C)CC2)c(N)nn1 [Compound 75, 6-amino-5-(4-(2-(((S)-1-((2S,4R)-4-hydroxy-2-(((S)-1-(4-(4-methylthiazol-5-yl)phenyl)ethyl)carbamoyl)pyrrolidin-1-yl)-3,3-dimethyl-1-oxobutan-2-yl)amino)-2-oxoethyl)piperazin-1-yl)-N-methylpyridazine-3-carboxamide]
SMARCA2 @ 100 nM (% SMARCA2 degradation) [4]: 12%

Nc1nnc(-c2ccccc2O)cc1N1CCN(CCC(=O)Nc2cccc3c2C(=O)N(C2CCC(=O)NC2=O)C3=O)CC1 (stereo not drawn) [Compound 69]
SMARCA2 @ 100 nM (% SMARCA2 degradation) [4]: 12%

Cc1ncsc1-c1ccc([C@H](C)NC(=O)[C@@H]2C[C@@H](O)CN2C(=O)[C@@H](NC(=O)C(C)N2CCN(c3cc(-c4ccccc4O)nnc3N)CC2)C(C)(C)C)cc1 (single isomer, unassigned) [Compound 57]
IC50 [1]: < 1000 nM
SMARCA2 Percent degradation @ 100 nM [2]: 79.6%

Cc1ncsc1-c1ccc(CNC(=O)[C@@H]2C[C@@H](O)CN2C(=O)[C@@H](NC(=O)CN2CCN(c3cc(-c4ccccc4O)nnc3N)CC2)C(C)(C)C)cc1 [Compound 39]
IC50 [1]: < 1000 nM
SMARCA2 Percent degradation @ 100 nM [2]: 97%

Cc1ncsc1-c1ccc(C(NC(=O)[C@@H]2C[C@@H](O)CN2C(=O)[C@@H](NC(=O)CC2CCN(c3cc(-c4cccc(F)c4O)nnc3N)CC2)C(C)(C)C)C(F)(F)F)cc1 (single isomer, unassigned) [Compound 77]
SMARCA2 @ 100 nM (% SMARCA2 degradation) [4]: 9%

CC(=O)O[C@@H]1C[C@@H](C(=O)N[C@@H](C)c2ccc(-c3scnc3C)cc2)N(C(=O)[C@@H](NC(=O)CN2CCN(c3cc(-c4ccccc4O)nnc3N)CC2)C(C)(C)C)C1 [Compound 47, (3R,5S)-1-((S)-2-(2-(4-(3-amino-6-(2-hydroxyphenyl)pyridazin-4-yl)piperazin-1-yl)acetamido)-3,3-dimethylbutanoyl)-5-(((S)-1-(4-(4-methylthiazol-5-yl)phenyl)ethyl)carbamoyl)pyrrolidin-3-yl acetate]
SMARCA4 Percent degradation @ 100 nM [3]: 87%
SMARCA2 Percent degradation @ 100 nM [2]: 87%

Cc1ncsc1-c1ccc([C@H](C)NC(=O)[C@@H]2C[C@@H](O)CN2C(=O)[C@@H](NC(=O)CC2CCN(c3cc(-c4cc(F)ccc4F)nnc3N)CC2)C(C)(C)C)cc1 [Compound 100]
SMARCA2 @ 100 nM (% SMARCA2 degradation) [4]: 9%

CC(=O)O[C@@H]1C[C@@H](C(=O)NCc2ccc(-c3scnc3C)cc2)N(C(=O)[C@@H](NC(=O)CN2CCN(c3cc(-c4ccccc4O)nnc3N)CC2)C(C)(C)C)C1 [Compound 48, (3R,5S)-1-((S)-2-(2-(4-(3-amino-6-(2-hydroxyphenyl)pyridazin-4-yl)piperazin-1-yl)acetamido)-3,3-dimethylbutanoyl)-5-((4-(4-methylthiazol-5-yl)benzyl)carbamoyl)pyrrolidin-3-yl acetate]
SMARCA4 Percent degradation @ 100 nM [3]: 28%
SMARCA2 Percent degradation @ 100 nM [2]: 5.4%
